From patent US11708283B2, “Metal-chelating compositions and their use in methods of removing or inhibiting barium scale” (CORNELL UNIVERSITY, priority 2018, dated 2023)

Assays:
[1] = Thermodynamic stability constants of Sr^2+ complexes by pH-potentiometry; type: binding; details: I = 0.1M KCl; for pSr (−log [M^2+]free): [M^2+] = 10^−6M, [L] = 10^−5M, pH 7.4; for log K′Sr (conditional stability constant): pH 7.4, 25° C., calculated from protonation and stability constants
Experimental: Potentiometric measurements were carried out using a titrator equipped with a combination electrode and an exchange unit with an automatic burette (10 mL). The titration vessel was fitted with a removable glass cell (˜70 mL) and was thermostated at 25° C. using a circulating water bath. CO2 was excluded from the vessel prior to and during the titrations using a small positive pressure of Ar that was passed through a solution of 30 wt % KOH. Carbonate-free KOH (˜0.1 M) was prepared by dissolving KOH pellets (semiconductor grade, 99.99% trace metals basis) in freshly boiled water (≥18 MΩ-cm) and was standardized by potentiometric titration against potassium hydrogen phthalate. Hydrochloric acid (0.1 M) was standardized against freshly prepared KOH. Titration solutions were maintained at a constant ionic strength of 0.1 M using KCl (≥99.5%) and were equilibrated for 15 minutes prior to the addition of titrant. Before every titration, the electrode was calibrated in terms of hydrogen ion concentration by titrating a solution of standardized HCl (5 mM) containing supporting electrolyte (95 mM) with standardized KOH (2 mL). Data within the pH ranges of 2.5-3.2 and 10.8-11.2 were analyzed using software to obtain the standard electrode potential (E0) and slope factor. Owing to the sharp rise in pH at the titration endpoint (pH 3.2-10.8), data obtained in this region are subject to significant error and were therefore excluded from the calibration analysis. A pKw value of 13.78 was taken from the literature (Baes, C. F.; Mesmer, R. E. The Hydrolysis of Cations; Wiley: New York, 1976).
ICP standards of calcium, strontium, and barium in dilute HNO3 were employed in the titrations. The exact amount of HNO3 was determined by potentiometric titration of each metal solution (1 mL), diluted to a known volume with H2O, with standardized KOH to pH ˜7; under these conditions, no precipitation of metal hydroxide species was observed. The data were analyzed using a Gran plot (Gran, G. Analyst 1952, 77, 661-671). Stability constants were measured for the alkaline earth complexes of macropa^2− and macropaquin^2− by adding standardized KOH to a solution (20 mL) containing ligand (0.02 mmol), metal (0.02 mmol), 1 M KCl (1.9 mmol), and a portion of 0.1 M HCl sufficient to bring the total acid content (HCl+HNO3) to 0.1 mmol. The titration method employed either a 0.1 mV/min or 0.2 mV/min drift limit with a maximum wait time of 300 seconds between addition of base and measurement. […] Data points (˜30-90) obtained over the pH ranges of 2.5-10.5 (Ba-macropa), 2.8-10.5 (Sr-macropa), 4.0-10.5 (Ca-macropa), 2.7-11.3 (Ba-macropaquin), and 4.0-11.3 (Sr- and Ca-macropaquin) were included in the refinements. These pH ranges reflect the portion of the titration curves in which metal binding is occurring. Using the protonation constants measured for each ligand, the stability constants (Equations 2-4, below) were calculated from the average of at least 3 independent titrations using appropriate software. Proton concentration was admitted as a refineable parameter. Ligand (L) concentration was taken as the averaged value obtained from the refinements of ligand-only titrations. The errors given for the stability constants correspond to one standard deviation.
The alkaline earth stability constants for macroquin-SO3^4− were determined using a system in which each ligand titration was paired with a ligand-metal titration. These pairwise titrations permitted the ligand concentration for the metal-ligand titrations to be known with reasonable certainty from the refinement of the ligand-only titrations. Immediately following a titration of the free ligand with HCl, metal ion (0.013 mmol) was added and the solution was equilibrated under Ar for 15 minutes before the addition of standardized KOH. The same titration method was employed as described above for macropa^2− and macropaquin^2−. […]

[2] = Thermodynamic stability constants of Ba^2+ complexes by pH-potentiometry; type: binding; details: for pBa (−log [M^2+]free): [M^2+] = 10^−6M, [L] = 10^−5M; for pBa (−log [M^2+]free) / log KBaH2L / log KBaHL / log KBaL / major species present at pH 7.4 in the presence of Ba^2+: 25° C.; for pBa (−log [M^2+]free) / log K′Ba (conditional stability constant) / log KBaH2L / log KBaHL / log KBaL: I = 0.1M KCl; for log K′Ba (conditional stability constant): pH 7.4, 25° C., calculated from protonation and stability constants; for log KBaH2L / log KBaHL / log KBaL: pH-potentiometry; for major species present at pH 7.4 in the presence of Ba^2+: speciation, [Ba^2+]tot=[L]tot=1.0 mM, I=0.1 M KCl
Experimental: Potentiometric measurements were carried out using a titrator equipped with a combination electrode and an exchange unit with an automatic burette (10 mL). The titration vessel was fitted with a removable glass cell (˜70 mL) and was thermostated at 25° C. using a circulating water bath. CO2 was excluded from the vessel prior to and during the titrations using a small positive pressure of Ar that was passed through a solution of 30 wt % KOH. […] Hydrochloric acid (0.1 M) was standardized against freshly prepared KOH. […] Before every titration, the electrode was calibrated in terms of hydrogen ion concentration by titrating a solution of standardized HCl (5 mM) containing supporting electrolyte (95 mM) with standardized KOH (2 mL).
ICP standards of calcium, strontium, and barium in dilute HNO3 were employed in the titrations. […] Stability constants were measured for the alkaline earth complexes of macropa^2− and macropaquin^2− by adding standardized KOH to a solution (20 mL) containing ligand (0.02 mmol), metal (0.02 mmol), 1 M KCl (1.9 mmol), and a portion of 0.1 M HCl sufficient to bring the total acid content (HCl+HNO3) to 0.1 mmol. The titration method employed either a 0.1 mV/min or 0.2 mV/min drift limit with a maximum wait time of 300 seconds between addition of base and measurement. […] These pH ranges reflect the portion of the titration curves in which metal binding is occurring. Using the protonation constants measured for each ligand, the stability constants (Equations 2-4, below) were calculated from the average of at least 3 independent titrations using appropriate software. Proton concentration was admitted as a refineable parameter. […] The errors given for the stability constants correspond to one standard deviation.
The alkaline earth stability constants for macroquin-SO3^4− were determined using a system in which each ligand titration was paired with a ligand-metal titration. These pairwise titrations permitted the ligand concentration for the metal-ligand titrations to be known with reasonable certainty from the refinement of the ligand-only titrations. […] The same titration method was employed as described above for macropa^2− and macropaquin^2−. […] Stability constants were calculated as described above.
Log conditional constants (log K′) of the alkaline earth complexes at pH 7.4 were calculated using the experimentally determined protonation and stability constants. These constants are expressed by the following equation:
In the above equation, [(ML)′]=[ML]+[MHL]+[MH2L], and [HnL]=[L], [HL], [H2L] . . . [HnL].

Compound | pSr (−log [M^2+]free) ([1]; 25° C.) | log K′Sr (conditional stability constant) [1] | pBa (−log [M^2+]free) ([2]; pH 7.4) | log K′Ba (conditional stability constant) [2] | log KSrHL ([1]; pH-potentiometry, 25° C.) | log KSrL ([1]; pH-potentiometry, 25° C.) | log KBaL lower than that for DOTA by [2] [log units] | Ba^2+ bound by ligand ([2]; pH 4.0, speciation) [%] | Ba^2+ complexed by ligand ([2]; pH 5.1, speciation) [%] | log K′Ba greater than those for DOTA and DTPA by ([2]; pH 7.4) | selectivity for Ba^2+ over Ca^2+ (ratio of pM values) ([2]; pH 7.4) [fold] | selectivity for Ba^2+ over Sr^2+ (ratio of pM values) ([2]; pH 7.4) [fold] | log KBaH2L [2] | log KBaHL [2] | log KBaL [2] | major species present at pH 7.4 in the presence of Ba^2+ [2] | log KSrH2L ([1]; pH-potentiometry, 25° C.)
O=C(O)CN1CCN(CC(=O)O)CCN(CC(=O)O)CCN(CC(=O)O)CC1 [DOTA, reference compound] | 9.30 | 8.35 | 6.76 | 5.72 | – | – | – | – | – | – | – | – | – | – | – | – | –
O=C(O)c1cccc(CN2CCOCCOCCN(Cc3cccc(C(=O)O)n3)CCOCCOCC2)n1 [macropa, 6,6-((1,4,10,13-tetraoxa-7,16-diazacyclooctadecane-7,16-diyl)bis(methylene))dipicolinic acid] | 10.02 | 9.07 | 11.69 | 10.74 | 3.35(8) | 9.442(4) | 0.64 | 90 | 99 | 5-6 orders of magnitude | 1.79 | 1.17 | 2.49(7) | 3.76(2) | 11.11 | – | –
O=C(O)c1cccc(CN2CCOCCOCCN(Cc3ccc4cccc(O)c4n3)CCOCCOCC2)n1 [macropaquin, 6-((16-((8-hydroxyquinolin-2-yl)methyl)-1,4,10,13-tetraoxa-7,16-diazacyclooctadecan-7-yl)methyl)picolinic acid] | 8.50 | 7.54 | 11.01 | 10.05 | 8.92(2) | 9.19(5) | – | – | – | – | – | – | 3.28(2) | 9.76(2) | 10.87 | MHL | –
O=S(=O)(O)c1ccc(O)c2nc(CN3CCOCCOCCN(Cc4ccc5c(S(=O)(=O)O)ccc(O)c5n4)CCOCCOCC3)ccc12 [macroquin-SO3, 2,2′-((1,4,10,13-tetraoxa-7,16-diazacyclooctadecane-7,16-diyl)bis(methylene))bis(8-hydroxyquinoline-5-sulfonic acid)] | 6.70 | 5.64 | 9.72 | 8.76 | 8.34(4) | 8.62(2) | – | – | – | – | – | – | 7.80(2) | 9.24(7) | 10.44 | MH2L | 6.920(3)
